{"source": "patent US12460184B2", "about": "“Cell primed with CTGF-D4 and insulin or IGF-1 and use in methods for cardiac tissue repair” (University of Vermont and State Agriculture College, priority 2013, dated 2025)", "molecules": {"B1": {"name": "human CTGF: connective tissue growth factor, full-length polypeptide SEQ ID NO: 1 (protein, listed as Homo sapiens)", "chain": "MTAASMGPVRVAFVVLLALCSRPAVGQNCSGPCRCPDEPAPRCPAGVSLVLDGCGCCRVCAKQLGELCTERDPCDPHKGLFCDFGSPANRKIGVCTAKDGAPCIFGGTVYRSGESFQSSCKYQCTCLDGAVGCMPLCSMDVRLPSPDCPFPRRVKLPGKCCEEWVCDEPKDQTVVGPALAAYRLEDTFGPDPTMIRANCLVQTTEWSACSKTCGMGISTRVTNDNASCRLEKQSRLCMVRPCEADLEENIKKGKKCIRTPKISKPIKFELSGCTSMKTYRAKFCGVCTDGRCCTPHRTTTLPVEFKCPDGEVMKKNMMFIKTCACHYNCPGDNDIFESLYYRKMYGDMA"}, "B2": {"name": "Dkk-1: a secreted inhibitor of Lrp6 (protein, UniProt O94907 32-266, looked up)", "Dickkopf-related protein 1": "TLNSVLNSNAIKNLPPPLGGAAGHPGSAVSAAPGILYPGGNKYQTIDNYQPYPCAEDEECGTDEYCASPTRGGDAGVQICLACRKRRKRCMRHAMCCPGNYCKNGICVSSDQNHFRGEIEETITESFGNDHSTLDGYSRRTTLSSKMYHTKGQEGSVCLRSSDCASGLCCARHFWSKICKPVLKEGQVCTKHRRKGSHGLEIFQRCYCGEGLSCRIQKDHHQASNSSRLHTCQRH"}, "B3": {"name": "CTGF-D4: recombinant human C-terminal (domain 4) CTGF peptide, SEQ ID NO: 2 (protein, listed as Homo sapiens)", "chain": "MGKKCIRTPKISKPIKFELSGCTSMKTYRAKFCGVCTDGRCCTPHRTTTLPVEFKCPDGEVMKKNMMFIKTCACHYNCPGDNDIFESLYYRKMYGDMA"}}, "key": {"Akt": {"test_system": "Akt", "assay": "Immunoblotting for phosphorylated Akt in CPCs", "format": "cell-based, rat", "conditions": "recombinant human Insulin, 30 min incubation", "experimental": "(§1) Cells were lysed in a buffer that consisted of 0.1% sodium dodecyl sulphate (SDS) and complete protease inhibitor cocktail (Roche, Basel, Switzerland) in PBS. Protein concentration was determined by the DC protein assay (Biorad, Hercules, CA). Twenty μg of protein was separated by SDS-PAGE. After electrophoresis, the gels were electroblotted to polyvinylidene difluoride (PVDF) membranes. All electrophoresis and electroblotting used Novex reagents and systems (Invitrogen, Carlsbad, Calif.). The blots were blocked for 1 hr at RT in 5% nonfat dry milk in PBS with 0.1% Tween 20 (PBST), washed 3×5 min in PBST, and incubated in primary antibodies in PBST with 5% BSA overnight at 4° C. After 3×5 min washes in PBST, the blots were incubated in secondary antibody conjugated to horseradish peroxidase conjugate (1:2000, Sigma) in PBST for 1 hr at RT. Unbound secondary antibody was removed and positive bands were detected with a chemiluminescent reaction. The primary antibodies for immunoblotting were Ki67 (clone SP6, 1:200, Abcam, Cambridge, MA); p-STAT3 (Tyr705, 1:1000), total STAT3 (1:1000), p-Akt (Ser 473, 1:1000)(Cell signaling); and β-actin (1:5000, Sigma)."}, "adult rat CPCs [1]": {"test_system": "adult rat CPCs", "assay": "CPC protection during hypoxia (1% oxygen, 48 hrs)", "format": "cell-based", "conditions": "for protection of CPCs against 48 hr of hypoxia: 1 ng/ml (each) in SFM; for CPC number after hypoxia: 30 ng/ml alone, control SFM with 1% BSA 9004 cells, mean±SD; for CdM-mediated protection of CPCs under hypoxic conditions: STAT3 inhibitor 10 μM added to CdM", "experimental": "(§2) Adult rat CPCs and cardiac fibroblasts were plated at 500 cells/cm^2 and cultured in their respective growth mediums. Three days after plating, the medium was removed, the wells were washed twice with PBS, and the cells were then exposed to CdM or to fresh serum-free medium (Alpha-MEM). For time course proliferation studies, CdM and serum-free medium were changed every 2 days. In signal transduction inhibitor studies, the following pharmacological inhibitors were used: AG490, inhibitor of Jak2/STAT3 pathway; Stattic, inhibitor of STAT3; LY294002, inhibitor of phosphatidylinositol 3-kinase (PI3K)/Akt pathway; and PD98059, inhibitor of extracellular signal-regulated kinase (ERK). All of the inhibitors were purchased from Calbiochem (Darmstadt, Germany) and were dissolved in dimethyl sulfoxide (DMSO). CPCs were cultured in CdM with the inhibitors or with the equivalent volume of DMSO as a control for 48 hrs. In cell protection studies, 3 days after plating, medium was replaced with either the CdM or serum-free medium and the cells were exposed to hypoxia in a specialized incubator (1% oxygen) for 48 hrs. The hypoxia incubator was a model that measured both CO2 and O2 (Thermo Electron, Forma Series II, model 3130). Oxygen was maintained at 1% by the injection of nitrogen gas and was monitored continuously.\nCell numbers were quantified by the fluorescent labeling of nucleic acids (CyQuant dye; Molecular Probes, Carlsbad, CA) and with a microplate fluorescence reader (FL×800; Bio-Tek Instruments Inc., Winooski, VT) set to 480 nm excitation and 520 nm emission. Each experiment was repeated a minimum of 3 times."}, "adult rat CPCs [2]": {"test_system": "adult rat CPCs", "assay": "Signal transduction inhibitor studies, CPCs cultured in CdM", "format": "cell-based", "conditions": "for cell number ratio to control cell number: CPCs in MSC CdM, 48 hrs, control CdM+DMSO = 100%", "experimental": "as §2, with “continuously. Cell numbers were quantified by the fluorescent labeling of nucleic acids (CyQuant dye; Molecular Probes, Carlsbad, CA) and with a microplate fluorescence reader (FL×800; Bio-Tek Instruments Inc., Winooski, VT) set to 480 nm excitation and 520 nm emission. Each experiment was repeated a minimum of 3 times.” for “continuously.”"}, "STAT3": {"test_system": "STAT3", "assay": "Immunoblotting for phosphorylated STAT3 in CPCs", "format": "cell-based, rat", "conditions": "3 ng/ml, 30 min, SFM containing 1% BSA", "experimental": "as §1"}, "EPDCs [3]": {"test_system": "EPDCs", "assay": "EPDC protection by CTGF-D4 under hypoxia (1% oxygen, 48 hr)", "format": "cell-based, rat", "conditions": "blocker added"}, "EPDCs [4]": {"test_system": "EPDCs", "assay": "Western blots for differentiation and adhesion/migration markers in EPDCs", "format": "cell-based", "conditions": "exposure to CTGF-D4"}, "canonical Wnt pathway": {"test_system": "canonical Wnt pathway", "assay": "Canonical Wnt pathway signaling in EPDCs (p-GSK3β, nuclear β-catenin)", "format": "cell-based, rat"}, "EPDCs [5]": {"test_system": "EPDCs", "assay": "Ex vivo adhesion assay of EPDCs to fibronectin", "format": "cell-based", "conditions": "40 ng/ml"}}, "data": [{"molecule": "Insulin: recombinant human Insulin, dimer of A-chain and B-chain", "values": [{"measurement": "p-Akt in CPCs", "setting": "Akt", "value": "induced p-Akt in a dose-responsive manner"}, {"measurement": "protection of CPCs against 48 hr of hypoxia", "setting": "adult rat CPCs [1]", "value": "did not protect CPCs"}, {"measurement": "CPC number after hypoxia", "setting": "adult rat CPCs [1]", "value": "13,507±1,473 cells"}, {"measurement": "CPC survival and proliferation", "setting": "adult rat CPCs [1]; recombinant human Insulin", "value": "increased also CPC survival and proliferation"}]}, {"molecule": "COc1cccc(-c2cc(=O)c3ccccc3o2)c1N", "note": "[PD98059]", "values": [{"measurement": "CPC proliferation in CdM", "setting": "adult rat CPCs [2]; ERK inhibitor", "value": "did not diminish CPC proliferation"}]}, {"molecule": "N#C/C(=C/c1ccc(O)c(O)c1)C(=O)NCc1ccccc1", "note": "[AG490]", "values": [{"measurement": "cell number ratio to control cell number", "setting": "adult rat CPCs [2]; 1 μM", "value": "96.3±0.9", "unit": "%"}, {"measurement": "cell number ratio to control cell number", "setting": "adult rat CPCs [2]; 5 μM", "value": "89.5±0.9", "unit": "%"}, {"measurement": "CPC number", "setting": "adult rat CPCs [2]; 10 μM, CPCs in CdM from p75MSCs or fibroblasts", "value": "inhibitory effect"}, {"measurement": "cell number ratio to control cell number", "setting": "adult rat CPCs [2]; 10 μM", "value": "43.4±2.4", "unit": "%"}, {"measurement": "CdM-mediated protection of CPCs under hypoxic conditions", "setting": "adult rat CPCs [1]", "value": "abolished CdM-mediated protection"}]}, {"molecule": "IGF-1: human Insulin-like growth factor 1", "values": [{"measurement": "CPC number after hypoxia", "setting": "adult rat CPCs [1]", "value": "14,894±559 cells"}]}, {"molecule": "O=[N+]([O-])c1ccc2c(c1)S(=O)(=O)C=C2", "note": "[Stattic, reference compound]", "values": [{"measurement": "growth of CPCs in p75MSC CdM", "setting": "adult rat CPCs [2]; 10 μM, vs DMSO vehicle, day 2 and 4", "value": "abolished"}, {"measurement": "CdM-mediated protection of CPCs under hypoxic conditions", "setting": "adult rat CPCs [1]", "value": "abolished CdM-mediated protection"}]}, {"molecule": "B1", "values": [{"measurement": "p-STAT3 in CPCs", "setting": "STAT3", "value": "significantly induced p-STAT3"}]}, {"molecule": "B2", "values": [{"measurement": "protection of EPDCs conferred by CTGF-D4", "setting": "EPDCs [3]", "value": "significantly reduced the protection"}]}, {"molecule": "B3", "values": [{"measurement": "EMT-like differentiation (SMA, CD90, ETrB protein levels)", "setting": "EPDCs [4]", "value": "promoted EMT-like differentiation"}, {"measurement": "levels of Von Willebrand Factor", "setting": "EPDCs [4]", "value": "did not seem to be affected"}, {"measurement": "signaling through the canonical Wnt pathway (p-GSK3β, nuclear β-catenin)", "setting": "canonical Wnt pathway", "value": "promoted signaling through the canonical Wnt pathway"}, {"measurement": "protection of CPCs against 48 hr of hypoxia", "setting": "adult rat CPCs [1]", "value": "did not protect CPCs"}, {"measurement": "adhesion of EPDCs to fibronectin", "setting": "EPDCs [5]", "value": "promoted adhesion of EPDCs to fibronectin"}]}]}
